Source: PubChem BioAssay (NCI)
Values joined by “and” are separate entries in the source; they are usually repeats but may differ in a detail not shown here. Identical values can stand only once.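 How tested: cells in 96-well plates exposed to compound for 48 hours at five concentrations. The concentration for 50% growth inhibition is given as GI50. TGI: concentration producing complete growth inhibition.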

What was measured:
Experiment in all cases: NCI anticancer screen, dose series, 48 h
NCI-H23 lung = system: NCI-H23 lung
SNB-19 CNS = system: SNB-19 CNS
OVCAR-3 ovarian = system: OVCAR-3 ovarian
OVCAR-8 ovarian = system: OVCAR-8 ovarian
IGROV1 ovarian = system: IGROV1 ovarian
K-562 leukemia = system: K-562 leukemia
SW-620 colon = system: SW-620 colon
SF-268 CNS = system: SF-268 CNS
HCC-2998 colon = system: HCC-2998 colon
MALME-3M melanoma = system: MALME-3M melanoma

Structure (SMILES) | GI50 (NCI-H23 lung) [µM] | TGI (NCI-H23 lung) | GI50 (SNB-19 CNS) [µM] | TGI (SNB-19 CNS) | GI50 (OVCAR-3 ovarian) [µM] | TGI (OVCAR-3 ovarian) [µM] | GI50 (OVCAR-8 ovarian) [µM] | TGI (OVCAR-8 ovarian) | GI50 (IGROV1 ovarian) [µM] | TGI (IGROV1 ovarian) [µM] | GI50 (K-562 leukemia) [µM] | TGI (K-562 leukemia) [µM] | GI50 (SW-620 colon) [µM] | TGI (SW-620 colon) [µM] | GI50 (SF-268 CNS) [µM] | TGI (SF-268 CNS) [µM] | TGI (HCC-2998 colon) [µM] | TGI (MALME-3M melanoma) [µM] | GI50 (HCC-2998 colon) [µM] | GI50 (MALME-3M melanoma) [µM]
Cc1cc2c(cc1Cl)SC(=Nc1ccc(Cl)cc1)N(S(=O)(=O)c1ccc(Br)s1)S2(=O)=O | 10.8 | 25 µM | 13.7 | 46.4 µM | 15 | 31.1 | 18.8 | 46.1 µM | 17.6 | 55.2 | 16.4 | 77.5 | 24.5 | > 100 | 32.2 | > 100 | – | – | – | –
O=C1/C(=C/c2cc(O)c(O)c(O)c2)Oc2cc(O)cc(OC3OC(CO)C(O)C(O)C3O)c21 (configuration not stated) | – | 80.9 µM | – | > 100 µM | – | 31.4 | – | 35.7 µM | – | > 100 | – | 34.9 | – | 58.3 | – | – | > 100 | – | – | –
CC(C)(Sc1cc(C(C)(C)C)c(O)c(C(C)(C)C)c1)Sc1cc(C(C)(C)C)c(O)c(C(C)(C)C)c1 | – | > 100 µM | – | > 100 µM | – | – | – | > 100 µM | – | > 100 | – | 3.35 | – | > 100 | – | > 100 | – | > 100 | – | –
c1ccc2[nH]c(-c3ccc(Nc4nc(N5CCCC5)nc5[nH]ncc45)cc3)nc2c1 | 0.808 | 2.7 µM | – | – | 0.753 | 2.81 | 0.241 | 0.621 µM | – | – | 0.202 | 0.466 | 0.211 | 0.486 | 0.62 | 2.42 | 0.826 | 1.3 | 0.294 | 0.314
COc1cccc2c1C(=O)c1c(O)c3c(c(O)c1C2=O)C[C@@](O)(/C(C)=N/NC(=O)c1cccc([N+](=O)[O-])c1)C[C@@H]3OC1CC(N)C(O)C(C)O1 (some centres not stated) | 0.316 | 2.87 µM | 0.291 | 12 µM | 0.396 | 5.26 | 0.366 | 21 µM | 0.932 | – | 0.356 | 5.16 | 0.156 | 9.4 | 0.269 | 2.26 | 2.77 | – | 0.326 | –
N#CSc1c[nH]c2ccc(/C=C/C(=O)/C=C(O)/C=C/c3ccc4[nH]cc(SC#N)c4c3)cc12 | 2.95 | 13.6 µM | 3.25 | 15.5 µM | 0.515 | 4.06 | 2.46 | > 100 µM | 1.19 | 8.41 | – | – | 0.668 | 2.35 | 2.65 | 13.1 | 16.6 | 5.91 | 3.82 | 2.22
CCOc1ccc2c(c1)[n+]([O-])c(C(N)=O)c(N)[n+]2[O-] | – | > 100 µM | – | > 100 µM | – | > 100 | – | > 100 µM | – | > 100 | – | > 100 | – | > 100 | – | > 100 | – | > 100 | – | –
CCN(Cc1ccccc1)c1ccc(/C=C2\COc3ccccc3C2=O)cc1 | 818 | > 1000 µM | > 1000 | > 1000 µM | 288 | > 1000 | > 1000 | > 1000 µM | > 1000 | > 1000 | – | – | 146 | > 1000 | > 1000 | > 1000 | > 1000 | > 1000 | > 1000 | > 1000
C/C(=C1\C(=O)Nc2ccccc21)c1cccc(/C(C)=C2/C(=O)Nc3ccccc32)n1 | 16.8 | 60.5 µM | 23.1 | > 100 µM | 4.52 | 28.2 | 6.39 | 76.8 µM | 35.6 | > 100 | 4.35 | > 100 | 7.69 | > 100 | 7.42 | 71.8 | 5.7 | – | 2.38 | –
COc1ccc(CC(C)NCC(O)c2ccc(O)c(NC=O)c2)cc1 (configuration not stated) | – | > 100 µM | – | > 100 µM | – | > 100 | – | > 100 µM | – | > 100 | – | > 100 | – | > 100 | – | > 100 | – | > 100 | – | –
O=c1cc(-c2cccc(Cl)c2)[nH]c2cc3c(cc12)OCO3 | 3.37 | 3.45 µM and 13.2 µM | 0.363 | 75 µM and 10.2 µM | – | – | 0.76 | 35 µM and 18.1 µM | 3.54 | – | – | – | – | > 100 | – | – | 4.97 | – | – | 0.31
O=C(O)CN(CCN(CC(=O)O)CC(=O)O)CCN(CC(=O)O)CC(=O)O | 2.45 | 10.2 µM | 5.18 | 61.6 µM | 3.51 | 9.84 | 3.19 | 14.8 µM | – | – | – | – | 3.85 | 19 | 3.04 | 10.8 | 27 | – | 4.42 | –
CCCCCCCCCCCC(c1ccccc1)[N+](C)(C)C (configuration not stated) | 1 | 5.86 µM | – | – | 0.815 | 2.35 | 1.18 | 3.06 µM | 0.417 | 1.79 | 0.673 | 4.09 | 1.5 | 3.86 | 1.26 | 2.61 | – | 2.91 | – | 1.29
